Measured values from ChEMBL document CHEMBL1151757, “Synthesis, radiosynthesis, and biological evaluation of fluorine-18-labeled 2beta-carbo(fluoroalkoxy)-3beta-(3'-((Z)-2-haloethenyl)phenyl)nortropanes: candidate radioligands for in vivo imaging of the serotonin transporter with positron emission tomography” (J Med Chem, 2008).

Columns and labels:
[1] = Ratio of drug uptake in pons to cerebellum in anesthetized cynomolgus monkey after 35 mins postinjection; format: ADME, organism-based, Macaca fascicularis; settings: in vivo
[2] = Ratio of drug uptake in pons to cerebellum in anesthetized cynomolgus monkey after 175 mins postinjection; format: ADME, organism-based, Macaca fascicularis; settings: in vivo
[3] = Ratio of drug uptake in medulla to cerebellum in anesthetized cynomolgus monkey after 1.5 mins postinjection; format: ADME, organism-based, Macaca fascicularis; settings: in vivo, 0.025 h
[4] = Ratio of drug uptake in medulla to cerebellum in anesthetized cynomolgus monkey after 9.5 mins postinjection; format: ADME, organism-based, Macaca fascicularis; settings: in vivo
[5] = Ratio of drug uptake in medulla to cerebellum in anesthetized cynomolgus monkey after 12.5 mins postinjection; format: ADME, organism-based, Macaca fascicularis; settings: in vivo
[6] = Ratio of drug uptake in medulla to cerebellum in anesthetized cynomolgus monkey after 35 mins postinjection; format: ADME, organism-based, Macaca fascicularis; settings: in vivo
[7] = Ratio of drug uptake in medulla to cerebellum in anesthetized cynomolgus monkey after 65 mins postinjection; format: ADME, organism-based, Macaca fascicularis; settings: in vivo
[8] = Drug uptake in anesthetized cynomolgus monkey brain occipital lobe after 2.5 mins postinjection; format: ADME, organism-based, Macaca fascicularis; settings: in vivo
[9] = Drug uptake in anesthetized cynomolgus monkey brain occipital lobe after 55 mins postinjection; format: ADME, organism-based, Macaca fascicularis; settings: in vivo
[10] = Drug uptake in anesthetized cynomolgus monkey brain occipital lobe after 135 mins postinjection; format: ADME, organism-based, Macaca fascicularis; settings: in vivo, 2.25 h
[11] = Drug uptake in anesthetized cynomolgus monkey brain occipital lobe after 145 mins postinjection; format: ADME, organism-based, Macaca fascicularis; settings: in vivo
[12] = Drug uptake in anesthetized cynomolgus monkey brain occipital lobe after 155 mins postinjection; format: ADME, organism-based, Macaca fascicularis; settings: in vivo
[13] = Drug uptake in anesthetized cynomolgus monkey brain occipital lobe after 165 mins postinjection; format: ADME, organism-based, Macaca fascicularis; settings: in vivo, 2.75 h
[14] = Drug uptake in anesthetized cynomolgus monkey brain frontal lobe after 3.5 mins postinjection; format: ADME, organism-based, Macaca fascicularis; settings: in vivo
[15] = Drug uptake in anesthetized cynomolgus monkey brain frontal lobe after 95 mins postinjection; format: ADME, organism-based, Macaca fascicularis; settings: in vivo
[16] = Drug uptake in anesthetized cynomolgus monkey brain frontal lobe after 105 mins postinjection; format: ADME, organism-based, Macaca fascicularis; settings: in vivo, 1.75 h
[17] = Drug uptake in anesthetized cynomolgus monkey brain frontal lobe after 215 mins postinjection; format: ADME, organism-based, Macaca fascicularis; settings: in vivo
Putamen [18] = experiment: Drug uptake in anesthetized cynomolgus monkey brain putamen after 115 mins postinjection; format: ADME, organism-based, Macaca fascicularis; set-up: unit not given here; settings: in vivo
Putamen [19] = experiment: Drug uptake in anesthetized cynomolgus monkey brain putamen after 165 mins postinjection; format: ADME, organism-based, Macaca fascicularis; settings: in vivo, 2.75 h
Putamen [20] = experiment: Drug uptake in anesthetized cynomolgus monkey brain putamen after 225 mins postinjection; format: ADME, organism-based, Macaca fascicularis; settings: in vivo, 3.75 h
[21] = Ratio of drug uptake in occipital lobe to cerebellum in anesthetized cynomolgus monkey after 195 mins postinjection; format: ADME, organism-based, Macaca fascicularis; settings: in vivo, 3.25 h
[22] = Ratio of drug uptake in occipital lobe to cerebellum in anesthetized cynomolgus monkey after 205 mins postinjection; format: ADME, organism-based, Macaca fascicularis; settings: in vivo
[23] = Ratio of drug uptake in frontal lobe to cerebellum in anesthetized cynomolgus monkey after 75 mins postinjection; format: ADME, organism-based, Macaca fascicularis; settings: in vivo, 1.25 h
[24] = Ratio of drug uptake in frontal lobe to cerebellum in anesthetized cynomolgus monkey after 135 mins postinjection; format: ADME, organism-based, Macaca fascicularis; settings: in vivo, 2.25 h
Midbrain [25] = experiment: Drug uptake in anesthetized cynomolgus monkey brain midbrain after 215 mins postinjection; format: ADME, organism-based, Macaca fascicularis; settings: in vivo
Pons [26] = experiment: Drug uptake in anesthetized cynomolgus monkey brain pons after 9.5 mins postinjection; format: ADME, organism-based, Macaca fascicularis; settings: in vivo
Pons [27] = experiment: Drug uptake in anesthetized cynomolgus monkey brain pons after 18.5 mins postinjection; format: ADME, organism-based, Macaca fascicularis; settings: in vivo
Pons [28] = experiment: Drug uptake in anesthetized cynomolgus monkey brain pons after 55 mins postinjection; format: ADME, organism-based, Macaca fascicularis; settings: in vivo
Medulla [29] = experiment: Drug uptake in anesthetized cynomolgus monkey brain medulla after 195 mins postinjection; format: ADME, organism-based, Macaca fascicularis; settings: in vivo, 3.25 h
Putamen [30] = experiment: Drug uptake in anesthetized cynomolgus monkey brain putamen after 185 mins postinjection; format: ADME, organism-based, Macaca fascicularis; settings: in vivo
[31] = Ratio of drug uptake in caudate to cerebellum in anesthetized cynomolgus monkey after 12.5 mins postinjection; format: ADME, organism-based, Macaca fascicularis; settings: in vivo
Pons [32] = experiment: Drug uptake in anesthetized cynomolgus monkey brain pons after 135 mins postinjection; format: ADME, organism-based, Macaca fascicularis; settings: in vivo, 2.25 h
Pons [33] = experiment: Drug uptake in anesthetized cynomolgus monkey brain pons after 175 mins postinjection; format: ADME, organism-based, Macaca fascicularis; settings: in vivo
Medulla [34] = experiment: Drug uptake in anesthetized cynomolgus monkey brain medulla after 1.5 mins postinjection; format: ADME, organism-based, Macaca fascicularis; settings: in vivo, 0.025 h
Medulla [35] = experiment: Drug uptake in anesthetized cynomolgus monkey brain medulla after 2.5 mins postinjection; format: ADME, organism-based, Macaca fascicularis; settings: in vivo
Medulla [36] = experiment: Drug uptake in anesthetized cynomolgus monkey brain medulla after 4.5 mins postinjection; format: ADME, organism-based, Macaca fascicularis; settings: in vivo, 0.075 h
Medulla [37] = experiment: Drug uptake in anesthetized cynomolgus monkey brain medulla after 6.5 mins postinjection; format: ADME, organism-based, Macaca fascicularis; settings: in vivo
Medulla [38] = experiment: Drug uptake in anesthetized cynomolgus monkey brain medulla after 95 mins postinjection; format: ADME, organism-based, Macaca fascicularis; settings: in vivo
Medulla [39] = experiment: Drug uptake in anesthetized cynomolgus monkey brain medulla after 145 mins postinjection; format: ADME, organism-based, Macaca fascicularis; settings: in vivo
Medulla [40] = experiment: Drug uptake in anesthetized cynomolgus monkey brain medulla after 155 mins postinjection; format: ADME, organism-based, Macaca fascicularis; settings: in vivo
[41] = Ratio of drug uptake in putamen to cerebellum in anesthetized cynomolgus monkey after 165 mins postinjection; format: ADME, organism-based, Macaca fascicularis; settings: in vivo, 2.75 h
Medulla [42] = experiment: Drug uptake in anesthetized cynomolgus monkey brain medulla after 215 mins postinjection; format: ADME, organism-based, Macaca fascicularis; settings: in vivo
Medulla [43] = experiment: Drug uptake in anesthetized cynomolgus monkey brain medulla after 235 mins postinjection; format: ADME, organism-based, Macaca fascicularis; settings: in vivo
[44] = Drug uptake in anesthetized cynomolgus monkey brain cerebellum after 3.5 mins postinjection; format: ADME, organism-based, Macaca fascicularis; settings: in vivo
[45] = Drug uptake in anesthetized cynomolgus monkey brain cerebellum after 18.5 mins postinjection; format: ADME, organism-based, Macaca fascicularis; settings: in vivo
[46] = Drug uptake in anesthetized cynomolgus monkey brain cerebellum after 22.5 mins postinjection; format: ADME, organism-based, Macaca fascicularis; settings: in vivo, 0.375 h
[47] = Drug uptake in anesthetized cynomolgus monkey brain cerebellum after 115 mins postinjection; format: ADME, organism-based, Macaca fascicularis; settings: in vivo
[48] = Drug uptake in anesthetized cynomolgus monkey brain occipital lobe after 0.5 mins postinjection; format: ADME, organism-based, Macaca fascicularis; settings: in vivo
Caudate [49] = experiment: Drug uptake in anesthetized cynomolgus monkey brain caudate after 1.5 mins postinjection; format: ADME, organism-based, Macaca fascicularis, Caudate nucleus; settings: in vivo, 0.025 h
Caudate [50] = experiment: Drug uptake in anesthetized cynomolgus monkey brain caudate after 4.5 mins postinjection; format: ADME, organism-based, Macaca fascicularis, Caudate nucleus; settings: in vivo, 0.075 h
Caudate [51] = experiment: Drug uptake in anesthetized cynomolgus monkey brain caudate after 45 mins postinjection; format: ADME, organism-based, Macaca fascicularis, Caudate nucleus; settings: in vivo, 0.75 h
Caudate [52] = experiment: Drug uptake in anesthetized cynomolgus monkey brain caudate after 55 mins postinjection; format: ADME, organism-based, Macaca fascicularis, Caudate nucleus; settings: in vivo
Caudate [53] = experiment: Drug uptake in anesthetized cynomolgus monkey brain caudate after 85 mins postinjection; format: ADME, organism-based, Macaca fascicularis, Caudate nucleus; settings: in vivo
Caudate [54] = experiment: Drug uptake in anesthetized cynomolgus monkey brain caudate after 235 mins postinjection; format: ADME, organism-based, Macaca fascicularis, Caudate nucleus; settings: in vivo
Thalamus [55] = experiment: Drug uptake in anesthetized cynomolgus monkey brain thalamus after 2.5 mins postinjection; format: ADME, organism-based, Macaca fascicularis; set-up: unit not given here; settings: in vivo
Putamen [56] = experiment: Drug uptake in anesthetized cynomolgus monkey brain putamen after 6.5 mins postinjection; format: ADME, organism-based, Macaca fascicularis; set-up: unit not given here; settings: in vivo
Putamen [57] = experiment: Drug uptake in anesthetized cynomolgus monkey brain putamen after 18.5 mins postinjection; format: ADME, organism-based, Macaca fascicularis; set-up: unit not given here; settings: in vivo
Thalamus [58] = experiment: Drug uptake in anesthetized cynomolgus monkey brain thalamus after 55 mins postinjection; format: ADME, organism-based, Macaca fascicularis; set-up: unit not given here; settings: in vivo
Thalamus [59] = experiment: Drug uptake in anesthetized cynomolgus monkey brain thalamus after 175 mins postinjection; format: ADME, organism-based, Macaca fascicularis; set-up: unit not given here; settings: in vivo
Midbrain [60] = experiment: Drug uptake in anesthetized cynomolgus monkey brain midbrain after 3.5 mins postinjection; format: ADME, organism-based, Macaca fascicularis; set-up: unit not given here; settings: in vivo
Midbrain [61] = experiment: Drug uptake in anesthetized cynomolgus monkey brain midbrain after 6.5 mins postinjection; format: ADME, organism-based, Macaca fascicularis; set-up: unit not given here; settings: in vivo
Midbrain [62] = experiment: Drug uptake in anesthetized cynomolgus monkey brain midbrain after 9.5 mins postinjection; format: ADME, organism-based, Macaca fascicularis; set-up: unit not given here; settings: in vivo
Midbrain [63] = experiment: Drug uptake in anesthetized cynomolgus monkey brain midbrain after 18.5 mins postinjection; format: ADME, organism-based, Macaca fascicularis; set-up: unit not given here; settings: in vivo
Midbrain [64] = experiment: Drug uptake in anesthetized cynomolgus monkey brain midbrain after 22.5 mins postinjection; format: ADME, organism-based, Macaca fascicularis; set-up: unit not given here; settings: in vivo, 0.375 h
Midbrain [65] = experiment: Drug uptake in anesthetized cynomolgus monkey brain midbrain after 35 mins postinjection; format: ADME, organism-based, Macaca fascicularis; set-up: unit not given here; settings: in vivo
Midbrain [66] = experiment: Drug uptake in anesthetized cynomolgus monkey brain midbrain after 55 mins postinjection; format: ADME, organism-based, Macaca fascicularis; set-up: unit not given here; settings: in vivo
Midbrain [67] = experiment: Drug uptake in anesthetized cynomolgus monkey brain midbrain after 105 mins postinjection; format: ADME, organism-based, Macaca fascicularis; set-up: unit not given here; settings: in vivo, 1.75 h
[68] = Ratio of drug uptake in midbrain to cerebellum in anesthetized cynomolgus monkey after 27.5 mins postinjection; format: ADME, organism-based, Macaca fascicularis; settings: in vivo

O=C(OCCC[18F])C1C2CCC(CC1c1cccc(/C=C\I)c1)N2 (stereo not drawn)
Ratio [1]: 0.9 | Ratio [2]: 1.4 | Ratio [3]: 1.3 | Ratio [4]: 0.9 | Ratio [5]: 1 | Ratio [6]: 1.1 | Ratio [7]: 1.2 | Drug uptake [8]: 0.62 | Drug uptake [9]: 4 | Drug uptake [10]: 2.82 | Drug uptake [11]: 2.82 | Drug uptake [12]: 2.63 | Drug uptake [13]: 2.59 | Drug uptake [14]: 0.83 | Drug uptake [15]: 2.68 | Drug uptake [16]: 2.58 | Drug uptake [17]: 1.99 | Drug uptake (Putamen [18]): 4.44 | Drug uptake (Putamen [19]): 3.74 | Drug uptake (Putamen [20]): 3.05 | Ratio [21]: 1.1 | Ratio [22]: 1.2 | Ratio [23]: 0.7 | Ratio [24]: 0.9 | Drug uptake (Midbrain [25]): 3.69 | Drug uptake (Pons [26]): 3.47 | Drug uptake (Pons [27]): 4.2 | Drug uptake (Pons [28]): 4.4 | Drug uptake (Medulla [29]): 3.78 | Drug uptake (Putamen [30]): 3.51 | Ratio [31]: 0.7 | Drug uptake (Pons [32]): 4.08 | Drug uptake (Pons [33]): 3.41 | Drug uptake (Medulla [34]): 0.35 | Drug uptake (Medulla [35]): 0.84 | Drug uptake (Medulla [36]): 2.58 | Drug uptake (Medulla [37]): 3.75 | Drug uptake (Medulla [38]): 4.93 | Drug uptake (Medulla [39]): 4.24 | Drug uptake (Medulla [40]): 4.09 | Ratio [41]: 1.6 | Drug uptake (Medulla [42]): 3.66 | Drug uptake (Medulla [43]): 3.15 | Drug uptake [44]: 1.95 | Drug uptake [45]: 4.74 | Drug uptake [46]: 4.78 | Drug uptake [47]: 3.1 | Drug uptake [48]: 0.01 | Drug uptake (Caudate [49]): 0.16 | Drug uptake (Caudate [50]): 1.55 | Drug uptake (Caudate [51]): 4.05 | Drug uptake (Caudate [52]): 4.09 | Drug uptake (Caudate [53]): 3.94 | Drug uptake (Caudate [54]): 2.41 | Drug uptake (Thalamus [55]): 0.8 | Drug uptake (Putamen [56]): 3.28 | Drug uptake (Putamen [57]): 4.42 | Drug uptake (Thalamus [58]): 4.89 | Drug uptake (Thalamus [59]): 3.44 | Drug uptake (Midbrain [60]): 1.74 | Drug uptake (Midbrain [61]): 3.41 | Drug uptake (Midbrain [62]): 4 | Drug uptake (Midbrain [63]): 4.65 | Drug uptake (Midbrain [64]): 4.55 | Drug uptake (Midbrain [65]): 5.01 | Drug uptake (Midbrain [66]): 4.98 | Drug uptake (Midbrain [67]): 4.82 | Ratio [68]: 1
